According to patent US8927583B2, “Pesticidal composition comprising a 2-pyrdilmethylbenzamide derivative and an insecticide compound” (Bayer Cropscience AG, priority 2006, dated 2015):

Assays:
Type in all cases: in vivo
[1] = test system: Spodoptera exigua; assay: Spodoptera exigua test (cabbage leaf dip, larvae mortality); conditions: 500 ppm, mortality after 3 d, cabbage leaves
Description: (§1) To produce a suitable preparation of active compound, 1 part by weight of active compound is mixed with the stated amount of solvent and emulsifier, and the concentrate is diluted with emulsifier-containing water to the desired concentration.
Cabbage leaves (Brassica oleracea) are treated by being dipped into the preparation of the active compound of the desired concentration and are infested with larvae of the beet army worm (Spodoptera exigua) as long as the leaves are still moist.
(§2) After the specified period of time, the mortality in % is determined. 100% means that all the caterpillars have been killed; 0% means that none of the caterpillars have been killed.

[2] = test system: Plutella xylostella; assay: Plutella xylostella test (cabbage leaf dip, larvae mortality); conditions: mortality after 3 d, cabbage leaves
Description: To produce a suitable preparation of active compound, 1 part by weight of active compound is mixed with the stated amount of solvent and emulsifier, and the concentrate is diluted with emulsifier-containing water to the desired concentration. Cabbage leaves (Brassica oleracea) are treated by being dipped into the preparation of the active compound of the desired concentration and are infested with larvae of the diamond back moth (Plutella xylostella) as long as the leaves are still moist. After the specified period of time, the mortality in % is determined. 100% means that all the caterpillars have been killed; 0% means that none of the caterpillars have been killed.

[3] = test system: Spodoptera frugiperda; assay: Spodoptera frugiperda test (cabbage leaf dip, larvae mortality); conditions: cabbage leaves; for Efficacy in % after 6 d: mortality after 6 d; for Efficacy in % after 4 d: mortality after 4 d
Description: as §1
Cabbage leaves (Brassica oleracea) are treated by being dipped into the preparation of the active compound of the desired concentration and are infested with larvae of the fall army worm (Spodoptera frugiperda) as long as the leaves are still moist.
as §2

In the case of `O=[N+]([O-])NC1=NCCN1Cc1ccc(Cl)nc1` [Imidacloprid], the “Efficacy in % after 3 d” value [1] is reported as 40%.
In the case of `CN/C(=N\[N+](=O)[O-])NCc1cnc(Cl)s1` [Clothianidin], the “Efficacy in % after 3 d” value ([2]; 4 ppm) is reported as 0%.
With `CN1COCN(Cc2cnc(Cl)s2)/C1=N\[N+](=O)[O-]` [Thiamethoxam] the “Efficacy in % after 6 d” value ([3]; 100 ppm) was 0%.
`O=C(NCc1ncc(C(F)(F)F)cc1Cl)c1c(Cl)cccc1Cl` [Fluopicolide, 2,6-dichloro-N-{[3-chloro-5-(trifluoromethyl)-2-pyridinyl]methyl}-benzamide] was tested, and the “Efficacy in % after 3 d” value [1] was 0%, the “Efficacy in % after 3 d” value ([2]; 200 ppm) was 0% and the “Efficacy in % after 6 d” value ([3]; 200 ppm) was 0%. For the same compound, the “Efficacy in % after 4 d” value ([3]; 500 ppm) was 0%.
With `N#C/N=C1\SCCN1Cc1ccc(Cl)nc1` [Thiacloprid] the “Efficacy in % after 4 d” value ([3]; 20 ppm) was 25%.
